Inconclusive results are not listed.
System: BDF1 mice, s.c. Lewis lung carcinoma, T/C %
Assay: NCI In Vivo Anticancer Drug Screen. Data for tumor model Lewis Lung Carcinoma (subcutaneous) in B6D2F1 (BDF1) mice
Summary of the method: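 Tumor-bearing mice were treated with test compound, and either survival or tumor size was recorded. Values are the treated-group measurement divided by that of the vehicle-treated control group.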

[1] = endpoint: mean tumor weight, dose: 15.0 mg/kg/injection, schedule: Q01DX011 (ip), vehicle: saline, higher = larger tumour

In the case of C[N+](C)(C)c1ncnc2nc[nH]c12, the T/C [1] is reported as 87 % of control, the T/C (endpoint: mean tumor weight, dose: 30.0 mg/kg/injection, schedule: Q01DX011 (ip), vehicle: saline, higher = larger tumour) is reported as 100 % of control and the T/C (endpoint: mean tumor weight, dose: 60.0 mg/kg/injection, schedule: Q01DX011 (ip), vehicle: saline, higher = larger tumour) is reported as 55 % of control. For the same compound, the T/C (endpoint: mean tumor weight, dose: 120.0 mg/kg/injection, schedule: Q01DX011 (ip), vehicle: saline, higher = larger tumour) was 59 % of control.

In the case of CCCCCCC(=O)O[C@H]1CC[C@H]2[C@@H]3CCC4=CC(=O)CC[C@]4(C)[C@H]3CC[C@]12C, the T/C (endpoint: mean tumor weight (est.), dose: 10.0 mg/kg/injection, schedule: Q01DX009 (ip), vehicle: water, higher = larger tumour) is reported as 73 % of control, the T/C (endpoint: mean tumor weight (est.), dose: 20.0 mg/kg/injection, schedule: Q01DX009 (ip), vehicle: water, higher = larger tumour) is reported as 111 % of control and the T/C (endpoint: mean tumor weight (est.), dose: 40.0 mg/kg/injection, schedule: Q01DX009 (ip), vehicle: water, higher = larger tumour) is reported as 52 % of control. For the same compound, the T/C (endpoint: mean tumor weight (est.), dose: 80.0 mg/kg/injection, schedule: Q01DX009 (ip), vehicle: water, higher = larger tumour) was 93 % of control, the T/C (endpoint: median survival time, dose: 10.0 mg/kg/injection, schedule: Q01DX009 (ip), vehicle: water, higher = longer survival) was 115 % of control and the T/C (endpoint: median survival time, dose: 80.0 mg/kg/injection, schedule: Q01DX009 (ip), vehicle: water, higher = longer survival) was 101 % of control.

CC(=O)CC(C)(C)N was tested, and the T/C [1] was 118 % of control, the T/C (endpoint: mean tumor weight, dose: 33.0 mg/kg/injection, schedule: Q01DX011 (ip), vehicle: saline, higher = larger tumour) was 101 % of control and the T/C (endpoint: mean tumor weight, dose: 50.0 mg/kg/injection, schedule: Q01DX011 (ip), vehicle: methylcellulose (MC), higher = larger tumour) was 50 % of control. For the same compound, the T/C (endpoint: mean tumor weight, dose: 50.0 mg/kg/injection, schedule: Q01DX011 (ip), vehicle: saline, higher = larger tumour) was 120 % of control, the T/C (endpoint: mean tumor weight, dose: 75.0 mg/kg/injection, schedule: Q01DX011 (ip), vehicle: methylcellulose (MC), higher = larger tumour) was 91 % of control and the T/C (endpoint: mean tumor weight, dose: 100.0 mg/kg/injection, schedule: Q01DX011 (ip), vehicle: methylcellulose (MC), higher = larger tumour) was 30 % of control.

For CC(C)=CC1C(C(=O)OCc2ccc(C)cc2C)C1(C)C (stereo not given), the T/C (endpoint: median survival time, dose: 12.5 mg/kg/injection, schedule: Q01DX009 (ip), vehicle: saline with Tween-80, higher = longer survival) was 93 % of control, the T/C (endpoint: median survival time, dose: 25.0 mg/kg/injection, schedule: Q01DX009 (ip), vehicle: saline with Tween-80, higher = longer survival) was 104 % of control and the T/C (endpoint: median survival time, dose: 50.0 mg/kg/injection, schedule: Q01DX009 (ip), vehicle: saline with Tween-80, higher = longer survival) was 89 % of control. The T/C (endpoint: median survival time, dose: 100.0 mg/kg/injection, schedule: Q01DX009 (ip), vehicle: saline with Tween-80, higher = longer survival) was 95 % of control and the T/C (endpoint: median survival time, dose: 200.0 mg/kg/injection, schedule: Q01DX009 (ip), vehicle: saline with Tween-80, higher = longer survival) was 98 % of control.

With O=c1[nH]c(=O)n(C2CC(O)C(CO)O2)cc1C(F)(F)F (stereo not given) the T/C (endpoint: median survival time, dose: 2.5 mg/kg/injection, schedule: Q01DX009 (ip), vehicle: saline, higher = longer survival) was 119 % of control, the T/C (endpoint: median survival time, dose: 5.0 mg/kg/injection, schedule: Q01DX009 (ip), vehicle: saline, higher = longer survival) was 103 % of control and the T/C (endpoint: median survival time, dose: 10.0 mg/kg/injection, schedule: Q01DX009 (ip), vehicle: saline, higher = longer survival) was 118 % of control.

With CN1c2c(nc(N)[nH]c2=O)NCC1CCNc1ccc(C(=O)NC(CCC(=O)O)C(=O)O)cc1 (stereo not given) the T/C (endpoint: median survival time, dose: 268.0 mg/kg/injection, schedule: Q01DX009 (ip), vehicle: saline, higher = longer survival) was 120 % of control, the T/C (endpoint: median survival time, dose: 400.0 mg/kg/injection, schedule: Q01DX009 (ip), vehicle: saline, higher = longer survival) was 116 % of control and the T/C (endpoint: median survival time, dose: 400.0 mg/kg/injection, schedule: Q04DX003 (ip), vehicle: saline, higher = longer survival) was 103 % of control. The T/C (endpoint: median survival time, dose: 600.0 mg/kg/injection, schedule: Q04DX003 (ip), vehicle: saline, higher = longer survival) was 116 % of control, the T/C (endpoint: median survival time, dose: 800.0 mg/kg/injection, schedule: Q01DX001 (ip), vehicle: saline, higher = longer survival) was 98 % of control and the T/C (endpoint: median survival time, dose: 900.0 mg/kg/injection, schedule: Q04DX003 (ip), vehicle: saline, higher = longer survival) was 106 % of control. For the same compound, the T/C (endpoint: median survival time, dose: 1200.0 mg/kg/injection, schedule: Q01DX001 (ip), vehicle: saline, higher = longer survival) was 103 % of control and the T/C (endpoint: median survival time, dose: 1800.0 mg/kg/injection, schedule: Q01DX001 (ip), vehicle: saline, higher = longer survival) was 110 % of control.

COC(CCC(C)C1OC23CC(OC(=O)CC(C(C)O)OC(=O)CC(O)(O2)C(C)CC3(C)C)C1C)c1cccc(O)c1 (stereo not given) was tested, and the T/C (endpoint: median survival time, dose: 25.0 micrograms/kg/injection, schedule: Q01DX009 (ip), vehicle: other, higher = longer survival) was 88 % of control, the T/C (endpoint: median survival time, dose: 50.0 micrograms/kg/injection, schedule: Q01DX009 (ip), vehicle: other, higher = longer survival) was 101 % of control and the T/C (endpoint: median survival time, dose: 100.0 micrograms/kg/injection, schedule: Q01DX009 (ip), vehicle: other, higher = longer survival) was 111 % of control.

From PubChem BioAssay AID270 (DTP/NCI, 2004)
